# Data: patent publication US20230047816A1 (priority 2018, published 2023)
# Biological target: Recombinant full length human PFKFB3 (Homo sapiens, UniProt Q16875)
# Assay: PFKFB3 kinase activity assay (ADP production, ADP-Glo)
# Recombinant full length human PFKFB3, sequence (Q16875 whole entry): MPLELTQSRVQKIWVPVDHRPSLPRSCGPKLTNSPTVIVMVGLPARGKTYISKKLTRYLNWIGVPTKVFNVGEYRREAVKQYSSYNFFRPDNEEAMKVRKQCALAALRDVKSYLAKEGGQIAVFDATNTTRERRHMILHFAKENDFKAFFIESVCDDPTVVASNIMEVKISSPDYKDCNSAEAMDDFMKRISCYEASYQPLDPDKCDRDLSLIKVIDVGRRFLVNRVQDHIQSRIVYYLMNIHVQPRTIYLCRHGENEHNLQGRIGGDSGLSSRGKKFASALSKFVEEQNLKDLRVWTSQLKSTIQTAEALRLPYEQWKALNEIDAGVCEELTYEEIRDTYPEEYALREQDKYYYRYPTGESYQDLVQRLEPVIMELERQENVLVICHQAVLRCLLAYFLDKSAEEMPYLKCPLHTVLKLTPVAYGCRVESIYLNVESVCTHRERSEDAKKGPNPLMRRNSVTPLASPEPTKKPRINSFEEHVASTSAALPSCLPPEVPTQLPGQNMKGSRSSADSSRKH
row,IC50,SMILES
1,< 20 µM,"CN(C)CCOC(=O)c1ccc(-c2ccc(F)c(F)c2)cc1N1Cc2ccc(C(=O)NS(C)(=O)=O)cc2C1=O [Compound 108, 3′,4′-Difluoro-3-(6-methanesulfonylaminocarbonyl-1-oxo-1,3-dihydroisoindol-2-yl)biphenyl-4-carboxylic acid 2-dimethylamino-ethyl ester]"
2,2 to 5 µM,NC(=O)c1ccc2c(c1)C(=O)N(c1ccc(-c3ccccc3)cc1C(=O)O)C2=O [Example 27]
3,0.5 to 2 µM,COc1ccc(-c2c(C)sc(N3C(=O)c4ccc(C(=O)N[C@@H](Cc5c[nH]c6ccccc56)C(=O)O)cc4C3=O)c2C#N)cc1 [Example 17]
4,< 0.5 µM,"Cc1ccc(-c2ccc(C(=O)O)c(N3C(=O)c4ccc(C(=O)O)cc4C3=O)c2)cc1 [Compound 141, 2-(4-Carboxy-4′-methyl[1,1′-biphenyl]-3-yl)-1,3-dioxo-2,3-dihydro-1H-isoindole-5-carboxylic acid]"
5,5 to 20 µM,"CC(C)OC(=O)c1ccc(-c2ccccc2)cc1N1C(=O)c2ccc(-c3nnn[nH]3)cc2C1=O [Compound 96, 3-[1,3-Dioxo-5-(1H-tetrazol-5-yl)-1,3-dihydroisoindol-2-yl]biphenyl-4-carboxylic acid isopropyl ester]"
6,< 0.5 µM,O=C(O)c1ccc(-c2ccc(F)cc2F)cc1N1C(=O)c2ccc(-c3c[nH]nn3)cc2C1=O [Example 51]
7,< 0.5 µM,"O=C(O)c1cc(C(=O)O)c(C(=O)Nc2cc(-c3ccc(F)c(F)c3)ccc2O)cc1O [Example 27, 4-((3′,4′-difluoro-4-hydroxy-[1,1′-biphenyl]-3-yl)carbamoyl)-6-hydroxyisophthalic acid]"
8,< 20 µM,"CC(=O)Nc1ccc2c(c1)C(=O)N(c1cc(-c3ccc(F)c(F)c3)ccc1C(=O)O)C2 [Compound 130, 3-(6-Acetylamino-1-oxo-1,3-dihydroisoindol-2-yl)-3′,4′-difluoro-biphenyl-4-carboxylic Acid]"
9,< 20 µM,"COC(=O)c1ccc(-c2ccc(F)c(F)c2)cc1N1Cc2ccc(CO)cc2C1=O [compound 157, methyl 3′,4′-difluoro-3-(6-(hydroxymethyl)-1-oxoisoindolin-2-yl)biphenyl-4-carboxylate]"
10,2 to 5 µM,"CCCCS(=O)(=O)NC(=O)c1ccc2c(c1)C(=O)N(c1ccc(-c3ccccc3)cc1C(=O)O)C2=O [Example 24, 4-[5-(Butane-1-sulfonylaminocarbonyl)-1,3-dioxo-1,3-dihydroisoindol-2-yl]biphenyl-3-carboxylic Acid]"
11,5 to 20 µM,"CN(C)CCOC(=O)c1cc(-c2ccccc2)ccc1N1C(=O)c2ccc(-c3c[nH]nn3)cc2C1=O [Compound 78, 4-[1,3-Dioxo-5-(1H-[1,2,3]triazol-4-yl)-1,3-dihydroisoindol-2-yl]biphenyl-3-carboxylic acid 2-dimethylamino-ethyl ester]"
12,0.5 to 2 µM,"CN(C)C(=O)c1cc(C(=O)O)c(O)cc1C(=O)Nc1cc(-c2ccc(Cl)cc2Cl)ccc1C(=O)O [Example 32, 3-(4-carboxy-2-(dimethylcarbamoyl)-5-hydroxybenzamido)-2′,4′-dichloro-[1,1′-biphenyl]-4-carboxylic acid]"
13,5 to 20 µM,Cn1cncc1-c1ccc(N2C(=O)c3ccc(-c4c[nH]nn4)cc3C2=O)c(C(=O)O)c1 [Example 61]
14,2 to 5 µM,O=C(O)c1ccc(-c2ccc(F)cc2)cc1N1C(=O)c2ccc(-c3c[nH]nn3)cc2C1=O [Example 57]
15,< 0.5 µM,O=C(O)c1ccc2c(c1)C(=O)N(c1cc(-c3ccc(F)cc3)ccc1C(=O)O)C2=O [Example 45]
16,< 0.5 µM,O=C(O)c1cc(-c2c[nH]cn2)ccc1N1C(=O)c2ccc(-c3c[nH]nn3)cc2C1=O [Example 60]
17,< 20 µM,"CC(=O)OCCOC(=O)c1ccc(-c2ccc(F)c(F)c2)cc1N1C(=O)c2ccc(-c3cnn[nH]3)cc2C1=O [compound 168, 2-(acetyloxy)ethyl 3-[1,3-dioxo-5-(1H-1,2,3-triazol-5-yl)-2,3-dihydro-1H-isoindol-2-yl]-3′,4′-difluoro[1,1′-biphenyl]-4-carboxylate]"
18,2 to 5 µM,O=C(O)c1ccc(-c2cccnc2)cc1N1C(=O)c2ccc(-c3c[nH]nn3)cc2C1=O [Example 49]
19,5 to 20 µM,"O=C1c2ccc(-c3c[nH]nn3)cc2C(=O)N1c1cc(-c2ccccc2)ccn1 [Compound 84, 2-(4-Phenylpyridin-2-yl)-5-(1H-[1,2,3]triazol-4-yl)-isoindole-1,3-dione]"
20,5 to 20 µM,"O=C1c2ccc(-c3c[nH]nn3)cc2C(=O)N1c1cc(-c2ccccc2)cc[n+]1[O-] [Compound 85, 2-{1,3-Dioxo-5-(1H-[1,2,3]triazol-4-yl)-2,3-dihydro-1H-isoindol-2-yl}-4-phenylpyridine N-oxide]"

row,IC50,SMILES
1,2 to 5 µM,"O=C(OCCN1CCCC1)c1ccc(-c2ccccc2)cc1N1C(=O)c2ccc(-c3c[nH]nn3)cc2C1=O [Compound 68, 3-[1,3-Dioxo-5-(1H-[1,2,3]triazol-4-yl)-1,3-dihydroisoindol-2-yl]biphenyl-4-carboxylic acid 2-pyrrolidin-1-yl-ethyl ester]"
2,5 to 20 µM,"O=C(OCCN1CCCC1)c1cc(-c2ccccc2)ccc1N1C(=O)c2ccc(-c3c[nH]nn3)cc2C1=O [Compound 79, 4-[1,3-Dioxo-5-(1H-[1,2,3]triazol-4-yl)-1,3-dihydroisoindol-2-yl]biphenyl-3-carboxylic acid 2-pyrrolidin-1-yl-ethyl ester]"
3,2 to 5 µM,O=C(O)c1cc(-c2ccccc2)ccc1N1C(=O)c2ccc(-c3cn(Cc4ccccc4)nn3)cc2C1=O [Example 29]
4,< 20 µM,"CN(C)CCCOC(=O)c1ccc(-c2ccc(F)c(F)c2)cc1N1Cc2ccc(C(=O)NS(C)(=O)=O)cc2C1=O [Compound 124, 3′,4′-Difluoro-3-(6-methanesulfonylaminocarbonyl-1-oxo-1,3-dihydro-isoindol-2-yl)-biphenyl-4-carboxylic acid 3-dimethylamino-propyl ester]"
5,< 0.5 µM,"O=C(O)c1cc(C(=O)Nc2cc(-c3ccc(F)c(F)c3)ccc2C(=O)O)c(C(=O)O)cc1Cl [Example 46, 2-({4-carboxy-3′,4′-difluoro-[1,1′-biphenyl]-3-yl}carbamoyl)-5-chlorobenzene-1,4-dicarboxylic acid]"
6,< 0.5 µM,"O=C(O)c1cc(C(=O)O)c(C(=O)Nc2cc(N3CC4CCC3C4)ccc2C(=O)O)cc1O (stereo not shown) [Example 58, 4-[(5-{2-azabicyclo[2.2.1]heptan-2-yl}-2-carboxyphenyl)carbamoyl]-6-hydroxybenzene-1,3-dicarboxylic acid]"
7,< 20 µM,"CC(C)OC(=O)c1ccc(-c2ccc(F)c(F)c2)cc1N1Cc2ccc(-c3c[nH]nn3)cc2C1=O [Compound 118, 3′,4′-Difluoro-3-[1-oxo-6-(1H-[1,2,3]triazol-4-yl)-1,3-dihydro-isoindol-2-yl]-biphenyl-4-carboxylic acid isopropyl ester]"
8,0.5 to 2 µM,"CNCCOC(=O)c1cc(-c2c[nH]cn2)ccc1N1C(=O)c2ccc(C(=O)O)cc2C1=O [Compound 77, 2-[4-(1H-Imidazol-4-yl)-2-(2-methylaminoethoxycarbonyl)-phenyl]-1,3-dioxo-2,3-dihydro-1H-isoindole-5-carboxylic Acid]"
9,< 0.5 µM,"CC1(C)CCC(c2ccc(C(=O)O)c(NC(=O)c3cc(C(=O)O)c(O)cc3C(=O)O)c2)CC1 [Example 57, 2-{[2-carboxy-5-(4,4-dimethylcyclohexyl)phenyl]carbamoyl}-5-hydroxybenzene-1,4-dicarboxylic acid]"
10,< 0.5 µM,"O=C(O)c1ccc(C(=O)Nc2ncc([N+](=O)[O-])s2)c(C(=O)O)c1 [Example 38, 4-[(5-nitro-1,3-thiazol-2-yl)carbamoyl]benzene-1,3-dicarboxylic acid]"
11,0.5 to 2 µM,"COc1ccc(-c2c(C)sc(N3C(=O)c4ccc(C(=O)N[C@@H](Cc5ccccc5)C(=O)O)cc4C3=O)c2C#N)cc1 [Compound 137, (2S)-2-({2-[3-Cyano-4-(4-methoxyphenyl)-5-methyl-thiophen-2-yl]-1,3-dioxo-2,3-dihydro-1H-isoindole-5-carbonyl}-amino)-3-phenylpropanoic acid]"
12,< 0.5 µM,"O=C(O)c1ccc2c(c1)C(=O)N(c1ccc(-c3c[nH]cn3)cc1C(=O)O)C2=O [Compound 75, 2-[2-Carboxy-4-(1H-imidazol-4-yl)-phenyl]-1,3-dioxo-2,3-dihydro-1H-isoindole-5-carboxylic Acid]"
13,5 to 20 µM,O=C(O)c1ccc2c(c1)C(=O)N(c1cc(-c3ccccc3)ccc1CO)C2=O [Example 11]
14,< 20 µM,"COC(=O)c1cc(-c2ccccc2)ccc1N1C(=O)c2ccc(C(=O)NS(=O)(=O)c3ccccc3)cc2C1=O [compound 152, methyl 4-(1,3-dioxo-5-(phenylsulfonylcarbamoyl)isoindolin-2-yl)biphenyl-3-carboxylate]"
15,< 0.5 µM,"CC1(C)CCC(c2ccc(C(=O)O)c(NC(=O)c3cc(O)c(C(=O)O)cc3C(=O)O)c2)CC1 [Example 52, 4-{[2-carboxy-5-(4,4-dimethylcyclohexyl)phenyl]carbamoyl}-6-hydroxybenzene-1,3-dicarboxylic acid]"
16,5 to 20 µM,COc1ccc(-c2c(C)sc(N3C(=O)c4ccc(C(=O)N[C@H](C(=O)O)C(C)C)cc4C3=O)c2C#N)cc1 [Example 19]
17,< 20 µM,"COC(=O)c1ccc(-c2ccccc2)cc1N1Cc2ccc(C(=O)O)cc2C1=O [Compound 102, 2-(4-Methoxycarbonylbiphenyl-3-yl)-3-oxo-2,3-dihydro-1H-isoindole-5-carboxylic Acid]"
18,0.5 to 2 µM,"O=C(O)c1ccc(-c2ccc(F)c(F)c2)cc1N1Cc2ccc(-n3cnnn3)cc2C1=O [Compound 122, 3′,4′-Difluoro-3-(1-oxo-6-tetrazol-1-yl-1,3-dihydroisoindol-2-yl)biphenyl-4-carboxylic Acid]"
19,< 0.5 µM,"CN(C)CCOC(=O)c1ccc(-c2ccccc2)cc1N1C(=O)c2ccc(-c3nnn[nH]3)cc2C1=O [Compound 97, 3-[1,3-Dioxo-5-(1H-tetrazol-5-yl)-1,3-dihydroisoindol-2-yl]biphenyl-4-carboxylic acid 2-dimethylamino-ethyl ester]"
20,< 0.5 µM,"O=C(O)c1cc(C(=O)O)c(C(=O)Nc2cc(-c3ccc(Cl)cc3Cl)ccc2C(=O)O)cc1O [Example 43, 4-({4-carboxy-2′,4′-dichloro-[1,1′-biphenyl]-3-yl}carbamoyl)-6-hydroxybenzene-1,3-dicarboxylic acid]"
